For data set [1] the following is noted: cited from earlier work; for Solubility (in words): background statement.
The nature of data set [2]: Solubility in water. The settings on record: description of the patent's own materials. The data set is classed as physicochemical.
A short description of data set [3]: Swine trial (16 barrows, 14 days): zinc in ileal, cecal and fecal samples and zinc digestibility. The settings on record: pigs. It counts as in vivo. The source says:
A representative animal trial used a group of 16 barrows (castrated male pigs) including of 8 pairs of littermates. […] The littermate pairs were divided in half and randomly assigned to either the control diet or the test diet containing a composition of the presently disclosed subject matter. Each diet was formulated using a basal diet primarily of corn and soybean meal containing 50 ppm Zn from an added vitamin premix. The control diet contained an additional 50 ppm Zn from Basic Zinc Chloride (Zn5Cl2(OH)8.H2O) and the test diet contained an additional 50 ppm Zn from a composition of the presently disclosed subject matter for a total of 100 ppm Zn for each diet to meet the National Research Council recommendation for zinc supplementation of pigs of this size. The composition of the presently disclosed subject matter was prepared as described herein above.
Pigs were fed twice daily at 0800 and 1700 for the entirety of the trial. Daily feed intake for maintenance was determined for each pig at 4% of initial body weight at the beginning of the trial. Each pig was housed in a separate metabolism crate allowing for the quantitative collection of feces and urine. The trial lasted for a total of 14 days; the first 10 days allowed for the pigs to adjust to their new environments and diets. Days 11-13 for were used for twice-daily feces and urine collection. On day 14 all pigs were weighed and humanely euthanized prior to dissections to obtain ileal and cecal content samples. Feces samples and urine samples were pooled daily and stored at −20 C until ready for analysis. Fecal, ileal, and cecal samples were dried at 64 C in a drying oven until no change in mass was observed which took between 48-96 hours for most samples. After being dried completely, samples were sent to Missouri Field Laboratories for analysis of Zn, Titanium dioxide which was used as a feed marker, and proximate nutrient analysis. Pigs gained an average of 7.34 kilograms per pig during the 14 day trial.
The control diet, containing all supplemental zinc from basic zinc chloride, contained 134 ppm zinc. […] This may be indicative of the composition of the presently disclosed subject matter having higher levels of zinc than used in formulation of the diets.
Using the concentration of zinc found in the feed and ileal, cecal and fecal samples, zinc digestibility by the following equation: 100−[100*(zinc in feed/zinc in feces)]. Since the amounts of zinc present in the diets were over the zinc requirement of pigs of this size and age, the extra zinc in the diets employing a composition of the presently disclosed subject matter (referred to as “Experimental” in Table 2) may have affected the zinc digestibility results.

Setting [4] is: 100-[100*(zinc in feed/zinc in sample)].

For `O=C([O-])[C@H](O)[C@@H](O)[C@H](O)[C@H](O)CO.O=C([O-])[C@H](O)[C@@H](O)[C@H](O)[C@H](O)CO.[Zn+2]` [zinc gluconate, Zn(O2C(CHOH)4CH2OH)2], the “Solubility (in words)” value in data set [1] is “highly soluble”.
`[Cl-].[Cl-].[Zn+2]` [ZnCl2]: the “Solubility (amount that dissolves in 1 L of water)” value in data set [1] (in 1 L of water) is given as 4 kg.
For `[O]=[Zn]` [Zinc oxide], the “Solubility (in words)” value in data set [1] is on record as “relatively insoluble except in acid”.
As for Zn5Cl2(OH)8.H2O [Control], the “Solubility in water / aqueous solution (in words)” value in data set [2] is “highly insoluble in water”. Moreover, the “Percent more zinc in ileal contents than in cecal contents” value in data set [3] came to 2.2%. Moreover, in data set [3] (dried cecal contents, day 14, diet zinc found 134 ppm (control) / 152 ppm (experimental)), the “Concentration of Zinc found in contents of the cecum” value is on record as 399 ppm. In addition, the “Concentration of Zinc found in feces” value in data set [3] (dried feces collected days 11-13, diet zinc found 134 ppm (control) / 152 ppm (experimental)) is reported as 678 ppm. Moreover, the “Concentration of Zinc found in contents of the ileum” value in data set [3] (dried ileal contents, day 14, diet zinc found 134 ppm (control) / 152 ppm (experimental)) is reported as 408 ppm. The “Percent Digestibility of Zinc in Feed, Fecal” value in data set [3] (100-[100*(zinc in feed/zinc in feces)]) was determined as 80.2%. Moreover, in data set [3] (setting [4]), the “Percent Digestibility of Zinc in Feed, Cecal” value is recorded as 66.1% and the “Percent Digestibility of Zinc in Feed, Ileal” value was determined as 62.6%. In data set [3] (fecal zinc vs total of ileal, cecal and fecal zinc), the “Share of total zinc excreted in feces” value amounted to 45.7%. In addition, in data set [3] (ileal+cecal zinc vs total of ileal, cecal and fecal zinc), the “Share of total zinc retained in ilium+cecum” value is on record as 54.3%.

Source of the values: US20230165278A1, “NUTRITIONAL SUPPLEMENTS COMPRISING DIETARY METAL COMPLEXES IN A MATRIX OF CELLULOSIC MATERIALS” (North Carolina State University, priority 2020, published 2023).
